Values after ≈ are worked out from the molar mass of the structure shown.
How the values were obtained:
[1] = In vitro release of 1% dapivirine from ethylene-vinyl acetate polymers; type: physicochemical; settings: 1% DPV in EVA, within 720 hours
Excerpt: Ethylene-vinyl acetate polymers (EVA) were also investigated for the use in the intrauterine systems described herein. FIGS. 19A-19B are graphs showing release for dapirivine (DPV) in ethylene-vinyl acetate polymers (EVAs), in accordance with the present technology.

HIV-1 = settings: cited from earlier work
physchem = type: physicochemical; settings: 37 °C, aqueous with cosolvent or surfactant or cyclodextrin, thermodynamic from solid
Excerpt: FIGS. 6A-6C are graphs showing differential dapivirine release driven by polymer crystallinity and water penetration, in accordance with the present technology.

[2] = cited from earlier work
[3] = In vitro drug release from TPU matrix delivery system prototypes; type: physicochemical; settings: for Predicted T50%: from best-fit release model
Method: Films were cut into disks with a 1-inch diameter die punch; disks were stacked and placed between two pieces of aluminum foil and compressed under a metal weight on a 120° C. dry bath. Thickness was monitored frequently until it measured 3.5 mm with digital calipers calibrated to 0.01 mm. Devices were cut from thick films using a custom rectangular 3.5 mm×13.3 mm die punch.
All release tests were performed in sink conditions in PBS supplemented with 2% w/v Cremophor® A25/Emulgin® B25. For the first 7-days of drug release testing, 1 mL samples were taken daily; following 7 days, samples were taken every 3-4 days. At all timepoints, bottles were drained and replaced with fresh media following sampling.
A qualification for selecting an optimal TPU for DPV delivery in this application is the time to achieve 50% cumulative release of drug. This is based on the standard use time of hormonal IUDs, which in practice are removed once about half of the initial load of drug is depleted from the device. Here, this standard was used as a benchmark to evaluate the sustained release properties of candidate delivery system designs. […] The fit of first-order release kinetics to the data was assessed. Equations 1 and 2 describe drug release from a system where dissolution is dependent on a concentration gradient.
Where k is the first order rate constant, Ct is the concentration of drug in solution at time t and C0 is the initial concentration of drug.
Where Q is the amount of drug release in time t and kh is the Higuchi release constant.
Based on the best-fit square-root of time relation, T50% was calculated for each TPU. […] Korsmeyer and Peppas provided a method for understanding drug release mechanisms of swelling and non-swelling polymeric systems, given by Equation 4: […]
Where Mt/M∝ is the fraction of drug released at time t, K is the rate constant, and n is the release exponent.

[4] = type: in vivo; settings: baboon, about one month of intrauterine instillation
Excerpt: Animals were monitored for signs of discomfort including decreased appetite, lethargy, and hunched posture. Tissue biopsies for histological analysis were fixed in 4% paraformaldehyde, dehydrated in alcohol, and embedded in paraffin. Cross sectional samples (5 μm) were taken and stained with hematoxylin and eosin (H&E) stain.
Vaginal tissue biopsies taken pre-insertion and 28-days post-insertion show characteristic features of healthy a vaginal epithelium, including a multilayered stratified squamous epithelium consisting of enucleated cells, a densely nucleated basal cell layer, and an inconspicuous lamina propria. Vaginal tissue biopsied 28-days post insertion has an intact stratified squamous epithelium that measures approximately 200 μm thick. Both pre-insertion and 28-days post-insertion cervical biopsies contain regions of a single columnar epithelium, while the underlying cervical stroma is composed of densely vascularized, fibromuscular tissue. The 28-day post-insertion cervical biopsy contains a thick stratus corneum of the exocervix; the epithelium overlays a prominent lymphoid aggregate, a feature of mucosa-associated lymphoid tissue (MALT) in the type I mucosa of the endocervix. Some cellular atypia is notable as a few epithelial cells display irregular nuclear membranes and perinuclear halos. […]

[5] = type: physicochemical
Excerpt: Both polyether sheath reservoirs (R1 & R2) released DPV faster than polycarbonate sheath reservoirs (R3 & R4). […] Thus, with DPV loaded at 1 wt % which is below the saturation solubility, these reservoirs contain a nonconstant activity source. Pursuant to the behavior of reservoirs with a nonconstant activity source, these reservoirs released drug following first-order release kinetics. Despite this expectation, drug release from all four reservoir devices was described slightly better by a square-root of time dependence.

## Cc1cc(C)c(Nc2ccnc(Nc3ccc(C#N)cc3)n2)c(C)c1 [DPV, dapivirine]
[1]
  cumulative release of loaded DPV: about 80%
HIV-1; at 1 nM (0.33 ng/mL)
  inhibition of provirus formation: 99%
HIV-1; at 10 nM (3.3 ng/mL)
  infection prevented (dissemination of HIV-1 by CD4+ dendritic cells): 90%
HIV-1; concentration with which tissue explants were treated
  IC90 in cervicovaginal tissue: 3.3 ng/mL (≈ 0.01 µM)
HIV-1; ex vivo viral inhibition model
  lowest concentration inhibiting productive infection of ectocervical tissue: 0.1 nM
physchem
  solubility: 164 ± 9.4 µg/mL (≈ 497 µM)
[2]; in vivo
  Cmax: 0.355 ng/mL
  treatment-emergent adverse events: no treatment-emergent adverse events were observed
[2]; oral DPV administration
  plasma concentration required to reduce viral load: 100 to 200 ng/mL
[3]; 1 wt % DPV, all four TPUs, within target range
  DPV dose released per day: 10 to 50 µg/day
[3]; 1 wt % loading, TPU1 matrix
  Actual T50%: 12 days
  First-Order: k: 0.002, h^−1
  Higuchi: kH: 0.029, %/h^1/2
  Korsmeyer-Peppas Constant: n: 0.525,
  Predicted T50%: 12 days
[3]; 1 wt % loading, TPU2 matrix
  Actual T50%: 12 days
  First-Order: k: 0.002, h^−1
  Higuchi: kH: 0.027, %/h^1/2
  Korsmeyer-Peppas Constant: n: 0.549,
  Predicted T50%: 13.5 days
[3]; 1 wt % loading, TPU3 matrix
  Actual T50%: 7 days
  First-Order: k: 0.004, h^−1
  Higuchi: kH: 0.038, %/h^1/2
  Korsmeyer-Peppas Constant: n: 0.662,
  Predicted T50%: 7 days
[3]; 1 wt % loading, TPU4 matrix
  First-Order: k: 0.0007, h^−1
  Higuchi: kH: 0.017, %/h^1/2
  Korsmeyer-Peppas Constant: n: 0.614,
  Predicted T50%: 36 days
[3]; 1 wt %, TPU3 matrix, by 30 days / one month
  cumulative release of encapsulated drug: approximately 95%
[3]; 16.6 wt % loading, TPU4 matrix
  First-Order: k: 0.0005 h⁻¹
  Higuchi: kH: 0.014, %/h^1/2
  Predicted T50%: 53.5 days
[3]; 16.6 wt %, TPU4 matrix, after 30 days
  cumulative release of loaded drug: approximately 33.5%
[3]; 16.6 wt %, TPU4 matrix, final rate at 30 days, per each ⅓ segment of the device
  release rate: approximately 62.56 μg/day
[4]
  tolerability / histological findings: likely safe and well-tolerated in baboons
[5]
  saturation solubility of DPV in a PY-PT43DE20 core: 5.46±0.93 wt %

— patent US20250152504A1, “INTRAUTERINE SYSTEMS COMPRISING ANTI-INFECTIVES FOR STEADY-STATE ACCUMULATION TO DISTAL EXTRAUTERINE TISSUE” (priority 2023, published 2025)
